In this test the target is T1, Lysine-specific demethylase 1 (LSD1) (Homo sapiens, UniProt O60341).
T1 construct: gene KDM1A; recombinant LSD1 (pET-28b-LSD1, expressed in BL21(DE3))
Nature of the test: HRP/Amplex Red fluorescence demethylase assay with H3K4me2 peptide; no-enzyme counter-screen; […] dilution reversibility assay. Format: biochemical.

One may read the IC50 as the concentration needed to halve the response being measured. `C[n+]1cc2c3c(ccc2c2ccc4cc5c(cc4c21)OCO5)OCO3` [sanguinarine] gave an IC50 of 400 nM. That is a sub-micromolar value.

The record behind these values is publication PMC9320206, “Sanguinarine, identified as a natural alkaloid LSD1 inhibitor, suppresses lung cancer cell growth and migration” (Iranian Journal of Basic Medical Sciences, 2022).
